For experiment [1], the target named is Ribosomal protein S6 kinase alpha-3 (Homo sapiens) (UniProt P51812). The experiment in a line: Inhibition of human full length RSK2 expressed in baculovirus assessed as substrate phosphorylation using fluorescence-labelled peptides as substrate at 0.1 uM after 90 mins by microfluidic peptide phosphorylation assay.
Experiment [2] has as its target T1, Cytoplasmic tyrosine-protein kinase BMX (Homo sapiens) (UniProt P51813).
T1 sequence (whole entry): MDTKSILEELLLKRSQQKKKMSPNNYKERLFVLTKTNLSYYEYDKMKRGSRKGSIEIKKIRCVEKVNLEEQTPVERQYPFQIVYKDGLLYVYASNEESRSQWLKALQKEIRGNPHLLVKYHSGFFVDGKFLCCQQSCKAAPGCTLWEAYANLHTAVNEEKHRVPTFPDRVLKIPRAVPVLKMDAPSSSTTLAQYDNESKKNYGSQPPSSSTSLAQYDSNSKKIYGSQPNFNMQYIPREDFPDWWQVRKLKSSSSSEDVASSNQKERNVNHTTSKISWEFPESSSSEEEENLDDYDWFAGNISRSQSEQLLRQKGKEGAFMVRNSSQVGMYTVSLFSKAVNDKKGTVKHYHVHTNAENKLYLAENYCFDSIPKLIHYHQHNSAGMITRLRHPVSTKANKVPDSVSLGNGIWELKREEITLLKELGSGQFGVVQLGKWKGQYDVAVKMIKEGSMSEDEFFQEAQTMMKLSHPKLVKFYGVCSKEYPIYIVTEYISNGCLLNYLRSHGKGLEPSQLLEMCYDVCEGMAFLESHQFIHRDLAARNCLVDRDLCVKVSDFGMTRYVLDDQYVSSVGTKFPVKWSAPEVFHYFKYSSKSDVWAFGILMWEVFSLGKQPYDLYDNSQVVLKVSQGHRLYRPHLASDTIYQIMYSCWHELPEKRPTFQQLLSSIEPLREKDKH
Kind of experiment: Inhibition of human full length BMX expressed in baculovirus assessed as substrate phosphorylation using fluorescence-labelled peptides as substrate at 420 uM after 90 mins by microfluidic peptide phosphorylation assay.

Experiment [3] concerns the target Protein kinase C theta type (Homo sapiens) (UniProt Q04759). The experiment in a line: Inhibition of human truncated PKC theta expressed in baculovirus assessed as substrate phosphorylation using fluorescence-labelled peptides as substrate at 95 uM after 90 mins by microfluidic peptide phosphorylation assay.
The target of experiment [4] is Serine/threonine-protein kinase PAK 2 (Homo sapiens) (UniProt Q13177). The experiment in a line: Inhibition of human truncated PAK2 expressed in Escherichia coli cell assessed as substrate phosphorylation using fluorescence-labelled peptides as substrate at 95 uM after 90 mins by microfluidic peptide phosphorylation assay.
Sequence of Serine/threonine-protein kinase PAK 2 (Homo sapiens) (Q13177 whole entry, the tested form may be a part): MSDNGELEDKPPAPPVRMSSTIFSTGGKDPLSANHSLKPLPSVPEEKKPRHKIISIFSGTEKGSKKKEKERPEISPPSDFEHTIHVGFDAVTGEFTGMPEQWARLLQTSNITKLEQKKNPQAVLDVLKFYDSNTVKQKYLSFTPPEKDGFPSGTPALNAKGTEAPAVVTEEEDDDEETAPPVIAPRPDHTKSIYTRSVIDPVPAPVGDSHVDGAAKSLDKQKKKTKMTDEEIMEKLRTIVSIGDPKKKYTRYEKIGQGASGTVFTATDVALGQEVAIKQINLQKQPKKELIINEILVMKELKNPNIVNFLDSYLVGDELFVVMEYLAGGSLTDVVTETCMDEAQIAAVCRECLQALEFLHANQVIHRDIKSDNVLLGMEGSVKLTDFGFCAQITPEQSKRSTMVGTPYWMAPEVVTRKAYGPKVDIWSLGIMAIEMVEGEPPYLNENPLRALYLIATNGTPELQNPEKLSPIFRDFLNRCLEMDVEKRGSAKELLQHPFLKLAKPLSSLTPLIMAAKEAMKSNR
Experiment [5] concerns the target T2, Serine/threonine-protein kinase 3 (Homo sapiens) (UniProt Q13188).
T2 sequence (whole entry): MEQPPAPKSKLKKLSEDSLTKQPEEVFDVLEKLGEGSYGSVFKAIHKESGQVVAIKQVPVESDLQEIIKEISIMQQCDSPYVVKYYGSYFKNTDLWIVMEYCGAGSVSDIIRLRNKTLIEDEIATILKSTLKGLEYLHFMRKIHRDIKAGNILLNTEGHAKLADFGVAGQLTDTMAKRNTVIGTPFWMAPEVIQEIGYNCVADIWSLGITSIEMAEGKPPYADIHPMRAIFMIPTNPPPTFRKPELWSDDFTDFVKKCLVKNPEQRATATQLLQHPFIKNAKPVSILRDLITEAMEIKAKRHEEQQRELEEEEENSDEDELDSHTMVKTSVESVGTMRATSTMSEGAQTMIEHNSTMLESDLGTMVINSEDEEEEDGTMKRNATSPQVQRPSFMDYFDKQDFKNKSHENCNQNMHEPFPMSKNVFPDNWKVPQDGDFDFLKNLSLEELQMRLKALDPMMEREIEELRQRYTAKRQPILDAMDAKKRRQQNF
Kind of experiment: Inhibition of human full length MST2 expressed in baculovirus assessed as substrate phosphorylation using fluorescence-labelled peptides as substrate at 9 uM after 90 mins by microfluidic peptide phosphorylation assay.

Experiment [6] deals with T3, Serine/threonine-protein kinase DCLK2 (Homo sapiens) (UniProt Q8N568).
T3 sequence (whole entry): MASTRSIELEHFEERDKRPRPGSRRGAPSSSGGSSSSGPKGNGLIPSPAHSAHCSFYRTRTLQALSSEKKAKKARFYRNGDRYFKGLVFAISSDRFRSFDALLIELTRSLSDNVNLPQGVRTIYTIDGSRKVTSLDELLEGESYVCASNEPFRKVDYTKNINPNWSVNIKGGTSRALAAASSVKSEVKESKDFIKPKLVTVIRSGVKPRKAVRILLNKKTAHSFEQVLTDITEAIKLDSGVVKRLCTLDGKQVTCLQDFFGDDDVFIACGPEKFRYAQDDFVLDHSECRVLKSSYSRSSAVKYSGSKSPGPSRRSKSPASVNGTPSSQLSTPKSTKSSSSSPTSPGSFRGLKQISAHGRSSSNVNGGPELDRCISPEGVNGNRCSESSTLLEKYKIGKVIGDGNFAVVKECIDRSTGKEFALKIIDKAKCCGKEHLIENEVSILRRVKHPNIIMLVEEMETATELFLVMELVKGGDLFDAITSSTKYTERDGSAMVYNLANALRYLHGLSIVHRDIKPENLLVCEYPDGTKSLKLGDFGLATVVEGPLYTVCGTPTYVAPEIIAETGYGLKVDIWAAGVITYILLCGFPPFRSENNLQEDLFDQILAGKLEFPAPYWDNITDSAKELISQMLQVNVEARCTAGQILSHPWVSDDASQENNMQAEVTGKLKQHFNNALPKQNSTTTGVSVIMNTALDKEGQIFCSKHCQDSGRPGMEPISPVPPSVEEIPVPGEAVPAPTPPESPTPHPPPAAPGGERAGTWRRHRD
Kind of experiment: Inhibition of human full length DCAMKL2 expressed in baculovirus assessed as substrate phosphorylation using fluorescence-labelled peptides as substrate at 9 uM after 90 mins by microfluidic peptide phosphorylation assay.

Experiment [7] deals with Serine/threonine-protein kinase MARK1 (Homo sapiens) (UniProt Q9P0L2). The experiment in a line: Inhibition of human full length MARK1 expressed in baculovirus assessed as substrate phosphorylation using fluorescence-labelled peptides as substrate at 9 uM after 90 mins by microfluidic peptide phosphorylation assay.
Sequence of Serine/threonine-protein kinase MARK1 (Homo sapiens) (Q9P0L2 whole entry, looked up, the tested form may be a part): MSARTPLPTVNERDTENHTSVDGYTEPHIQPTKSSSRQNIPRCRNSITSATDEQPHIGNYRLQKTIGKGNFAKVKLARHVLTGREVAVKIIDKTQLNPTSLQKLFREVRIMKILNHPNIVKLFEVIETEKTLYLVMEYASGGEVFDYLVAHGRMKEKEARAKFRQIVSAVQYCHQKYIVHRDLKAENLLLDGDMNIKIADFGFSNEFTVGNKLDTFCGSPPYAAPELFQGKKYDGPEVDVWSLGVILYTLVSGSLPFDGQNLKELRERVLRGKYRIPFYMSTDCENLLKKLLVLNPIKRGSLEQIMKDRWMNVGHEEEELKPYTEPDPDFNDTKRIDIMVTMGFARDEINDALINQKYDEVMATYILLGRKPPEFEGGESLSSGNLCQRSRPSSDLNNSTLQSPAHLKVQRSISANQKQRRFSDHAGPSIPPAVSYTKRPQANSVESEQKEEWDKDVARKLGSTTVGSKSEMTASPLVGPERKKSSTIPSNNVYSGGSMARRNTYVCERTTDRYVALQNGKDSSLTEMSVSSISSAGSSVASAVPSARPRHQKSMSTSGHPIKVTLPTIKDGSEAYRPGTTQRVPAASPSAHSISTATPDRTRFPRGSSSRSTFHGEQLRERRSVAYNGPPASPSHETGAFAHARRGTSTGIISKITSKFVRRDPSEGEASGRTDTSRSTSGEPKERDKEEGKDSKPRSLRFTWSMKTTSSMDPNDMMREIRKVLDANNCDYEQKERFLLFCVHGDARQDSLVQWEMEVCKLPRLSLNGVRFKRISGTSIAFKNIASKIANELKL
Experiment [8] deals with Insulin-like growth factor 1 receptor (Homo sapiens) (UniProt P08069). The experiment in a line: Inhibition of human IGF1R catalytic domain expressed in baculovirus assessed as substrate phosphorylation using fluorescence-labelled peptides as substrate at 9 uM after 90 mins by microfluidic peptide phosphorylation assay.

The structures appear in SMILES notation.

Sequence of Ribosomal protein S6 kinase alpha-3 (Homo sapiens) (P51812 whole entry): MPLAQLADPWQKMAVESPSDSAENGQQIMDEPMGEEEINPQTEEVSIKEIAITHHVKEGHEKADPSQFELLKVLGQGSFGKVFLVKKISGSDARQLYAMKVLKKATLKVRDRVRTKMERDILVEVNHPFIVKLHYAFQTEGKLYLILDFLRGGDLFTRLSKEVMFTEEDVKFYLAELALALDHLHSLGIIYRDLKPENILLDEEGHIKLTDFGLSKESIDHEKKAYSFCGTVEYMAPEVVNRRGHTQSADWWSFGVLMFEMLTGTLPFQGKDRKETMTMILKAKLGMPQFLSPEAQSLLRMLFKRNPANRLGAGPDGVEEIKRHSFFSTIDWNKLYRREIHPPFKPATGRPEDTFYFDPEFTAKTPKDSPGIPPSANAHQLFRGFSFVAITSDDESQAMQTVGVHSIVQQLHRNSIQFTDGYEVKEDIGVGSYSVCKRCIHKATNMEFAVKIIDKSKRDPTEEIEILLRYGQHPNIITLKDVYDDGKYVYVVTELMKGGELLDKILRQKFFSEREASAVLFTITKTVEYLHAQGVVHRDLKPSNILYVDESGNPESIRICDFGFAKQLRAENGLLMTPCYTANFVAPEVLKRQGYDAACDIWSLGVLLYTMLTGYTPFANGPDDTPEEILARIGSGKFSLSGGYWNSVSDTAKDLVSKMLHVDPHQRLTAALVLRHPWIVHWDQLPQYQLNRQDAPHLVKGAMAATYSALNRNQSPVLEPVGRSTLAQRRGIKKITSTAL
Sequence of Protein kinase C theta type (Homo sapiens) (Q04759 whole entry, looked up, the tested form may be a part): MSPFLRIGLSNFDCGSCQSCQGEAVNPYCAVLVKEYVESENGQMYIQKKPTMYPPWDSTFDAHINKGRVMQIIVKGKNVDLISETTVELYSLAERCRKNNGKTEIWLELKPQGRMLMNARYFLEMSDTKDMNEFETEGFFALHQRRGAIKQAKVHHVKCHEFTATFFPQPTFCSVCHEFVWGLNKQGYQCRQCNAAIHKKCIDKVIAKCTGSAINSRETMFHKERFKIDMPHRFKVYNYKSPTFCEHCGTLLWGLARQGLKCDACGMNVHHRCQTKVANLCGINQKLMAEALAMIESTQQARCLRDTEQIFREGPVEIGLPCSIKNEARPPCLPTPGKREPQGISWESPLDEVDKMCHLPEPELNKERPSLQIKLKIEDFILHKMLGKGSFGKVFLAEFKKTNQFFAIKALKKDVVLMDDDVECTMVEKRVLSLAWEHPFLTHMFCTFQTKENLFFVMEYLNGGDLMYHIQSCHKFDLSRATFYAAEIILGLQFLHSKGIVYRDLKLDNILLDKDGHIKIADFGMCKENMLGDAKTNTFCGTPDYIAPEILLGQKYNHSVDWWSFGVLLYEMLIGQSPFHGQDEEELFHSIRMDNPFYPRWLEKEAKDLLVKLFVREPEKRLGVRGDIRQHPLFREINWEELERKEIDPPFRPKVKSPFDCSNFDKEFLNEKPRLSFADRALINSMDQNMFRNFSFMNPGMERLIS

For `C[C@H](CN(C)C)Oc1nc(Nc2cc3cccc(Cl)c3cn2)cnc1C#N`, in experiment [1], the inhibition was found to be 59.5%.

Regarding `c1nc(N2CCOCC2)c2nc[nH]c2n1`, the inhibition in experiment [2] came to 62.5%.

Take `NCCc1ccc(-c2ncnc3[nH]cnc23)cc1`: the inhibition in experiment [3] was found to be 72%; in experiment [4], 57.5%.

With `NCC1CN(c2ncnc3[nH]c4cnccc4c23)CCO1` (stereo not drawn), the inhibition in experiment [5] is 81%; in experiment [6], 3%; in experiment [7], 2%; in experiment [8], 10%.

The values are drawn from ChEMBL document CHEMBL3132769, “Fragment growing to retain or alter the selectivity of anchored kinase hinge-binding fragments” (Medchemcomm, 2014).
